SMILES strings stand for the structures.

In this assay the test system is recombinant NL4-3 virus (Renilla luciferase in nef, Gag P373S; NLRluc) in MT-2 cells. The assay can be described thus: whole plant or invertebrate. It counts as cell-based, HIV. As to conditions: Renilla, NL43, luciferase activity in cells infected for 4-5 days with NLRluc recombinants, serial dilutions of inhibitor; class symbols (key in Table 1); read-out: EC50. In short, it runs like this: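 Inhibitor potency against the reporter virus comes from reduced luciferase activity in infected MT-2 cells exposed to a dilution series of compound over 4-5 days.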

In the case of `CC(C)[C@@H]1CC[C@]2(N)CC[C@]3(C)[C@H](CC[C@@H]4[C@@]5(C)CC[C@H](c6ccc(C(=O)O)cc6)C(C)(C)[C@@H]5CC[C@]43C)[C@@H]12` [Example B3, 4-((1S,3aS,5aR,5bR,7aS,9S,11aS,11bR,13aR,13bR)-3a-amino-1-isopropyl-5a,5b,8,8,11a-pentamethylicosahydro-1H-cyclopenta[a]chrysen-9-yl)benzoic acid], the EC50 (as a rule, the concentration that produces a half-maximal response) is less than 0.1 µM. As for `C=C(C)[C@@H]1CC[C@]2(NC(=O)N3CCN(C)CC3)CC[C@]3(C)[C@H](CC[C@@H]4[C@@]5(C)CC=C(c6ccc(C(=O)O)cc6)C(C)(C)[C@@H]5CC[C@]43C)[C@@H]12` [Example 54, 4-((1R,3aS,5aR,5bR,7aR,11aS,11bR,13aR,13bR)-5a,5b,8,8,11a-pentamethyl-3a-(4-methylpiperazine-1-carboxamido)-1-(prop-1-en-2-yl)-2,3,3a,4,5,5a,5b,6,7,7a,8,11,11a,11b,12,13,13a,13b-octadecahydro-1H-cyclopenta[a]chrysen-9-yl)benzoic acid], the EC50 is less than 0.1 µM. The value for `C=C(C)[C@@H]1CC[C@]2(NCCN3CCN(S(=O)(=O)C4CC4)CC3)CC[C@]3(C)[C@H](CC[C@@H]4[C@@]5(C)CC=C(c6ccc(C(=O)O)cc6)C(C)(C)[C@@H]5CC[C@]43C)[C@@H]12` [Example B22, 4-((1R,3aS,5aR,5bR,7aR,11aS,11bR,13aR,13bR)-3a-((2-(4-(cyclopropylsulfonyl)piperazin-1-yl)ethyl)amino)-5a,5b,8,8,11a-pentamethyl-1-(prop-1-en-2-yl)-2,3,3a,4,5,5a,5b,6,7,7a,8,11,11a,11b,12,13,13a,13b-octadecahydro-1H-cyclopenta[a]chrysen-9-yl)benzoic acid] was less than 0.1 µM; that for `C=C(C)[C@@H]1CC[C@]2(NC(=O)Cc3ccccn3)CC[C@]3(C)[C@H](CC[C@@H]4[C@@]5(C)CC=C(c6ccc(C(=O)O)cc6)C(C)(C)[C@@H]5CC[C@]43C)[C@@H]12` [Example 127, 4-((1R,3aS,5aR,5bR,7aR,11aS,11bR,13aR,13bR)-5a,5b,8,8,11a-pentamethyl-1-(prop-1-en-2-yl)-3a-(2-(pyridin-2-yl)acetamido)-2,3,3a,4,5,5a,5b,6,7,7a,8,11,11a,11b,12,13,13a,13b-octadecahydro-1H-cyclopenta[a]chrysen-9-yl)benzoic acid] was less than 0.1 µM. As to `C=C(C)[C@@H]1CC[C@]2(NCCS(C)(=O)=O)CC[C@]3(C)[C@H](CC[C@@H]4[C@@]5(C)CC=C(c6ccc(C(=O)O)cc6)C(C)(C)[C@@H]5CC[C@]43C)[C@@H]12` [Example 136, 4-((1R,3aS,5aR,5bR,7aR,11aS,11bR,13aR,13bR)-5a,5b,8,8,11a-pentamethyl-3a-(2-(methylsulfonyl)ethylamino)-1-(prop-1-en-2-yl)-2,3,3a,4,5,5a,5b,6,7,7a,8,11,11a,11b,12,13,13a,13b-octadecahydro-1H-cyclopenta[a]chrysen-9-yl)benzoic acid], the EC50 was less than 0.1 µM.

With `C=C(C)[C@@H]1CC[C@]2(NC(=O)N3CCN(C(=O)OC(C)(C)C)CC3CO)CC[C@]3(C)[C@H](CC[C@@H]4[C@@]5(C)CC=C(c6ccc(C(=O)O)cc6)C(C)(C)[C@@H]5CC[C@]43C)[C@@H]12` (mixture of isomers) [Example 61, 4-((1R,3aS,5aR,5bR,7aR,11aS,11bR,13aR,13bR)-3a-(4-(tert-butoxycarbonyl)-2-(hydroxymethyl)piperazine-1-carboxamido)-5a,5b,8,8,11a-pentamethyl-1-(prop-1-en-2-yl)-2,3,3a,4,5,5a,5b,6,7,7a,8,11,11a,11b,12,13,13a,13b-octadecahydro-1H-cyclopenta[a]chrysen-9-yl)benzoic acid], the EC50 is less than 0.1 µM.

For the origin of these results see US20140343000A1 (priority 2011, published 2014).
